From patent publication US20090048303A1, “Indole-2-carboxamidine derivatives as nmda receptor antago” (priority 2004, published 2009)

Biological target: T1, NMDA receptors of rat cortical neurons (Rattus norvegicus, UniProt Q00960)
T1 construct: primary neocortical cell cultures derived from 17 day old Charles River rat embryos; endogenous in cells; host or cells: primary rat embryonic (E17) neocortical cell culture, 3-7 days in vitro
Test: NMDA antagonist potency by intracellular calcium measurement (plate reader fluorimeter) in rat cortical cell culture
Type: cell-based
Conditions: not given
Description: Assessment of NMDA Antagonist Potency In Vitro by Measurement of Intracellular Calcium Concentration with a Plate Reader Fluorimeter in Rat Cortical Cell Culture
The intracellular calcium measurements were carried out on primary neocortical cell cultures derived from 17 day old Charles River rat embryos (for the details on the preparation of neocortical cell culture see Johnson, M. I.; Bunge, R. P. (1992): Primary cell cultures of peripheral and central neurons and glia. In: Protocols for Neural Cell Culture, eds: Fedoroff, S.; Richardson A., The Humana Press Inc., 51-75.) After isolation the cells were plated onto standard 96-well microplates and the cultures were maintained in an atmosphere of 95% air-5% CO2 at 37° C. until the calcium measurements.
The cultures were used for the intracellular calcium measurements after 3-7 days in vitro. Before the measurement the cells were loaded with a fluorescent Ca^2+-sensitive dye, Fluo-4/AM (2 μM). To stop the loading the cells were washed twice with the solution used for the measurement (140 mM NaCl, 5 mM KCl, 2 mM CaCl2, 5 mM HEPES, 5 mM HEPES-Na, 20 mM glucose, 10 μM glycine, pH=7.4). After washing the test compounds were added to the cells in the above solution (90 μl/well). Intracellular calcium measurements were carried out with a plate reader fluorimeter: elevation of Fluo-4-fluorescence and so, intracellular calcium was induced by application of 40 μM NMDA. Inhibitory potency of the test compounds was assessed by measuring the reduction in the calcium elevation in the presence of different concentrations of the compounds.
(§1) Dose-response curves and IC50 values were calculated by using data derived from at least three independent experiments. Inhibitory potency of a compound at a single concentration point was expressed as percent inhibition of the NMDA response. Sigmoidal concentration-inhibition curves were fit to the data and IC50 values were determined as the concentration that produces half of the maximal inhibition caused by the compound.

T1 sequence (Q00960 27-1482, other chains not shown): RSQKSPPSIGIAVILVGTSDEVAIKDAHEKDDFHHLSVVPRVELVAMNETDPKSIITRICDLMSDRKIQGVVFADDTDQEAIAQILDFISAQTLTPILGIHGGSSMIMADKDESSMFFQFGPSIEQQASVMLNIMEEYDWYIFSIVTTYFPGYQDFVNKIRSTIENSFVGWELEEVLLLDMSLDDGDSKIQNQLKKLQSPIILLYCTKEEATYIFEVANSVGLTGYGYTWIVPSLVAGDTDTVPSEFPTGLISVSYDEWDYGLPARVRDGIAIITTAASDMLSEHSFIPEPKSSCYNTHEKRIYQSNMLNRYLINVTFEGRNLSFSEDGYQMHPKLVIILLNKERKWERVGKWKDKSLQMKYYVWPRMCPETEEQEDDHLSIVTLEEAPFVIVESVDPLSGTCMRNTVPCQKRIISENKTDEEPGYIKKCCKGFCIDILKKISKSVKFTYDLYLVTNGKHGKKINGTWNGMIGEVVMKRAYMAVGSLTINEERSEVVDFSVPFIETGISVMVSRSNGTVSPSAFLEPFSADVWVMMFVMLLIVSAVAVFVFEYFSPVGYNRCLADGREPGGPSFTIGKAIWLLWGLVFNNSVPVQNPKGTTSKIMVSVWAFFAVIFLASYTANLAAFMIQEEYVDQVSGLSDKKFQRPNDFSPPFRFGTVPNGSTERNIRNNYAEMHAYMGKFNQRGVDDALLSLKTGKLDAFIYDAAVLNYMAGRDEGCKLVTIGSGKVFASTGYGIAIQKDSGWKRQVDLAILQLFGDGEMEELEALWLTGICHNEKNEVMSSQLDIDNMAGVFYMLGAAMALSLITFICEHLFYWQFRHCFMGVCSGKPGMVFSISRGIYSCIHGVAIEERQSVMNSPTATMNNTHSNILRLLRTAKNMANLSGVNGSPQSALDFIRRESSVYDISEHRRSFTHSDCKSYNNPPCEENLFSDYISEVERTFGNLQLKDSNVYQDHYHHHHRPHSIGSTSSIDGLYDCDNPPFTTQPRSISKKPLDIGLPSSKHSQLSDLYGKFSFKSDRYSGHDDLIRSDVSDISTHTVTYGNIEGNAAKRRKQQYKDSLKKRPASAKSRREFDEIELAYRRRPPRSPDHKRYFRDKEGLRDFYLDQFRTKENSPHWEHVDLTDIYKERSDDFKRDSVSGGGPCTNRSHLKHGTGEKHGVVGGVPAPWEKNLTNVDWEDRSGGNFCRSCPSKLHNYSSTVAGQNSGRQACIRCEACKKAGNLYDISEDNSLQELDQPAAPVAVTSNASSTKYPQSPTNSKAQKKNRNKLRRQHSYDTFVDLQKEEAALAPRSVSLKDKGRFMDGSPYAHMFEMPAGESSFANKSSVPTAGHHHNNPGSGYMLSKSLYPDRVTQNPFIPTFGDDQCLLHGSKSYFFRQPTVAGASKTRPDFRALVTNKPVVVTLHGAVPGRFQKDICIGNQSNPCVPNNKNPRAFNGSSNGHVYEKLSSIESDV

Row | SMILES | IC50
1 | CC(CN1CCC(Cc2ccccc2)CC1)C(O)c1ccc(O)cc1 (stereo not drawn) [Ro 25.6981, R-(R*,S*)-1-(4-hydroxyphenyl)-2-methyl-3-[4-(phenylmethyl)piperidin-1-yl]-1-propanol, reference compound] | 159 nM

Same assay, conditions: rat cortical cells, 40 μM NMDA, fluorimetric method; read-out: Cortical cells IC50

Row | SMILES | IC50
2 | O=c1[nH]c2ccc([S+]([O-])CCN3CCC(Cc4ccc(F)cc4)CC3)cc2o1 (stereo not shown) [CI-1041, 6-{2-[4-(4-fluoro-benzyl)-piperidin-1-yl]-ethanesulfinyl}-3H-benzooxazol-2-one, reference compound] | 6.6 nM
3 | N=C(NCc1cccc(Br)c1)c1cc2ccccc2[nH]1 [Compound 26] | 418 nM
4 | COc1ccc(OC)c(CNC(=N)c2cc3ccccc3[nH]2)c1 [Compound 35] | 341 nM
5 | N=C(NCc1cc(F)ccc1F)c1cc2cc(F)ccc2[nH]1 [Compound 67] | 359 nM
6 | N=C(NCc1cc(F)cc(F)c1)c1cc2cc(F)ccc2[nH]1 [Compound 70] | 594 nM
7 | COc1ccc(OC)c(CNC(=N)c2cc3cc(F)ccc3[nH]2)c1 [Compound 71] | 453 nM
8 | N=C(NCc1cccc(F)c1)c1cc2cc(Cl)ccc2[nH]1 [Compound 81] | 432 nM
9 | COc1ccc(CNC(=N)c2cc3cc(Cl)ccc3[nH]2)c(OC)c1 [Compound 83] | 369 nM
10 | N=C(NCc1ccccc1Cl)c1cc2cc(Cl)ccc2[nH]1 [Compound 87] | 422 nM
11 | COc1cccc(CNC(=N)c2cc3cc(Cl)ccc3[nH]2)c1 [Compound 92] | 319 nM
12 | N=C(NCc1ccccc1F)c1cc2cc(Cl)ccc2[nH]1 [Compound 107] | 493 nM
13 | N=C(NCc1c(F)cccc1F)c1cc2cc(Cl)ccc2[nH]1 [Compound 108] | 742 nM
14 | N=C(NCc1cc(F)cc(F)c1)c1cc2cc(Cl)ccc2[nH]1 [Compound 110] | 702 nM
15 | COc1ccc(OC)c(CNC(=N)c2cc3cc(Cl)ccc3[nH]2)c1 [Compound 111] | 417 nM
16 | COc1ccc2[nH]c(C(=N)NCc3ccccc3C(F)(F)F)cc2c1 [Compound 119] | 401 nM
17 | COc1ccc2[nH]c(C(=N)NCc3ccc(OC)c(OC)c3)cc2c1 [Compound 126] | 519 nM
18 | COc1ccc2[nH]c(C(=N)NCc3cccc(Cl)c3)cc2c1 [Compound 127] | 373 nM
19 | COc1ccc2[nH]c(C(=N)NCc3cccnc3)cc2c1 [Compound 134] | 100 nM
20 | COc1ccc2[nH]c(C(=N)NCc3cccc(Br)c3)cc2c1 [Compound 139] | 397 nM
21 | COc1ccc2[nH]c(C(=N)NCc3cc(F)cc(F)c3)cc2c1 [Compound 145] | 318 nM
22 | O=C(CCN1CCC(Cc2ccc(F)cc2)CC1)c1ccc2[nH]c(=O)oc2c1 [EMD 95885, reference compound] | 35 nM

More lines, now with the values ahead:

Row | IC50 | SMILES
23 | 23 nM | Cc1ccc(CC2(O)CCN(CCOc3ccc(O)cc3)CC2)cc1 [Co-101244, 1-[2-(4-hydroxyphenoxy)ethyl]-4-hydroxy-4-(4-methylbenzyl)piperidine, reference compound]
24 | 75 nM | CCOc1ccccc1CNC(=N)c1cc2ccccc2[nH]1 [Compound 19]
25 | 277 nM | N=C(NCc1ccccc1Br)c1cc2ccccc2[nH]1 [Compound 25]
26 | 232 nM | N=C(NCc1ccccc1F)c1cc2ccccc2[nH]1 [Compound 29]
27 | 224 nM | N=C(NCc1cc(F)ccc1F)c1cc2ccccc2[nH]1 [Compound 30]
28 | 143 nM | N=C(NCc1c(F)cccc1F)c1cc2ccccc2[nH]1 [Compound 31]
29 | 170 nM | Cc1ccccc1C/N=C(\N)c1cc2ccccc2[nH]1 [Compound 32]
30 | 5.4 nM | COc1cccc(OC)c1CNC(=N)c1cc2ccccc2[nH]1 [Compound 36]
31 | 159 nM | N=C(NCc1cc(Cl)cc(Cl)c1)c1cc2ccccc2[nH]1 [Compound 38]
32 | 211 nM | COc1cccc(CNC(=N)c2cc3cc(F)ccc3[nH]2)c1 [Compound 57]
33 | 51 nM | CCOc1ccccc1CNC(=N)c1cc2cc(F)ccc2[nH]1 [Compound 59]
34 | 160 nM | Cc1ccccc1CNC(=N)c1cc2cc(F)ccc2[nH]1 [Compound 68]
35 | 17 nM | COc1cccc(OC)c1C/N=C(\N)c1cc2cc(F)ccc2[nH]1 [Compound 72]
36 | 209 nM | N=C(NCc1cc(Cl)cc(Cl)c1)c1cc2cc(F)ccc2[nH]1 [Compound 73]
37 | 213 nM | CCOc1ccccc1CNC(=N)c1cc2cc(Cl)ccc2[nH]1 [Compound 94]
38 | 125 nM | N=C(NCc1cccnc1)c1cc2cc(Cl)ccc2[nH]1 [Compound 97]
39 | 257 nM | N=C(NCc1cccc(Br)c1)c1cc2cc(Cl)ccc2[nH]1 [Compound 103]
40 | 198 nM | N=C(NCc1ccccc1OC(F)(F)F)c1cc2cc(Cl)ccc2[nH]1 [Compound 106]
41 | 218 nM | Cc1ccccc1CNC(=N)c1cc2cc(Cl)ccc2[nH]1 [Compound 109]
42 | 69 nM | COc1cccc(OC)c1C/N=C(\N)c1cc2cc(Cl)ccc2[nH]1 [Compound 112]
43 | 224 nM | COc1ccc2[nH]c(C(=N)NCc3ccccc3)cc2c1 [Compound 118]
44 | 129 nM | COc1ccc(CNC(=N)c2cc3cc(OC)ccc3[nH]2)c(OC)c1 [Compound 123]
45 | 220 nM | COc1ccc2[nH]c(C(=N)NCc3cccc(C)c3)cc2c1 [Compound 128]
46 | 52 nM | COc1cccc(CNC(=N)c2cc3cc(OC)ccc3[nH]2)c1 [Compound 129]
47 | 57 nM | CCOc1ccccc1CNC(=N)c1cc2cc(OC)ccc2[nH]1 [Compound 131]
48 | 232 nM | COc1ccc2[nH]c(C(=N)NCc3ccccc3Br)cc2c1 [Compound 138]
49 | 202 nM | COc1ccc2[nH]c(C(=N)NCc3cc(F)ccc3F)cc2c1 [Compound 142]
50 | 158 nM | COc1ccc2[nH]c(C(=N)NCc3c(F)cccc3F)cc2c1 [Compound 143]
51 | 287 nM | COc1ccc(OC)c(CNC(=N)c2cc3cc(OC)ccc3[nH]2)c1 [Compound 146]
52 | 26 nM | COc1ccc2[nH]c(C(=N)NCc3c(OC)cccc3OC)cc2c1 [Compound 147]

Biological target: T2, recombinant NMDA receptors NR1(−3)/NR2A (Homo sapiens, UniProt Q05586+Q12879)
T2 construct: expressed in transfected cells
Test: Inhibition of NMDA evoked cytosolic calcium elevation in HEK 293 cells expressing recombinant NR1-3/NR2A
Type: cell-based
Conditions: 10 μM, NR1-3/NR2A subunit expressing cells
Description: (2003)]. […] Compounds were tested for their inhibitory action on NMDA evoked cytosolic calcium elevations in fluorescent calcium measurements. Studies were performed 48-72 h after addition of the inducing agent. Ketamine (500 μM) was also present during the induction in order to prevent cytotoxicity.
as §1

T2 sequence (Q12879 23-1464, other chains not shown): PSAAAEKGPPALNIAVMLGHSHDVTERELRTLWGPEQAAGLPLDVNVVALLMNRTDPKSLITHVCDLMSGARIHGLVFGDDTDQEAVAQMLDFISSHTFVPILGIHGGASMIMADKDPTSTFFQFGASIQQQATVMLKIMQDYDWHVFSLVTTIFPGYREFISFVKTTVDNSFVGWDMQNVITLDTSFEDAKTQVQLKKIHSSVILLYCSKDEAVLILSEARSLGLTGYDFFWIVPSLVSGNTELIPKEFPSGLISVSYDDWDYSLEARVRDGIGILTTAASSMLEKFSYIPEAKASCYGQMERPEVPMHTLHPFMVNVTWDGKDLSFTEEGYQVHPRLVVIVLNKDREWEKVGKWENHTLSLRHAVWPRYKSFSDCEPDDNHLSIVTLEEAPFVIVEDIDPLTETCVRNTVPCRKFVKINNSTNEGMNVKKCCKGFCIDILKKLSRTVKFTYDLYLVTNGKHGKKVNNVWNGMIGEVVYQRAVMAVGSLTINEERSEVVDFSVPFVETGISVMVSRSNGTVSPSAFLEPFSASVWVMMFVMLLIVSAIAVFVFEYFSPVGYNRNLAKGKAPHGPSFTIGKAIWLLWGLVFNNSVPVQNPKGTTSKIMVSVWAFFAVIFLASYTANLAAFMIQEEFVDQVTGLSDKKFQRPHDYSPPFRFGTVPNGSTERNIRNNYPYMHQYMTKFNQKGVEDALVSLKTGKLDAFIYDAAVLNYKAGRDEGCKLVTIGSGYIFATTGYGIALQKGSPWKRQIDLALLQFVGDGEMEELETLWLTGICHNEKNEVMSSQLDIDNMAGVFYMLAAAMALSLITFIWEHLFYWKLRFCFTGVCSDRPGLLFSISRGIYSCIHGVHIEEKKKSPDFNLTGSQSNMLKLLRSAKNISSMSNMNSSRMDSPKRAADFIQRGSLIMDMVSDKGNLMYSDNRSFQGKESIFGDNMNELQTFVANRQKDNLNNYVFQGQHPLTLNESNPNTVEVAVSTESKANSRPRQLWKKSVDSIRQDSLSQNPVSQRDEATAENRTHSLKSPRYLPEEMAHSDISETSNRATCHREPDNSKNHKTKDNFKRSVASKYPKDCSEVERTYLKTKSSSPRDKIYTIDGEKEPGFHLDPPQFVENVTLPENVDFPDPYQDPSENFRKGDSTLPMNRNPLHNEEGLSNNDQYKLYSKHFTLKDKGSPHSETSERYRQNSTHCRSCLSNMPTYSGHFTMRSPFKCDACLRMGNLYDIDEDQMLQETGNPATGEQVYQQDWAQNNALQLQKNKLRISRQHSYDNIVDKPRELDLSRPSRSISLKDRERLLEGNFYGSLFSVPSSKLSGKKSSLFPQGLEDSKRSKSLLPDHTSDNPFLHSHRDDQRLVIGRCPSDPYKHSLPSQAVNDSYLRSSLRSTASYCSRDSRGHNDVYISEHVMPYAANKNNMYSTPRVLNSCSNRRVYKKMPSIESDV

Row | SMILES | NR1-3/NR2A % inhibition at 10 μM
53 | O=C(CCN1CCC(Cc2ccc(F)cc2)CC1)c1ccc2[nH]c(=O)oc2c1 [EMD 95885, reference compound] | 0.1%

Same assay, conditions: HEK293; 10 μM, NR1-3/NR2A subunit expressing cells

Row | SMILES | inhibition at 10 µM
54 | C[C@@H]([C@@H](O)c1ccc(O)cc1)N1CCC(O)(c2ccccc2)CC1 [CP 101,606, (1S,2S)-1-(4-hydroxyphenyl)-2-(4-hydroxy-4-phenylpiperidine-1-yl)-1-propanol] | 2.5%
55 | CC(C(O)c1ccc(O)cc1)N1CCC(Cc2ccccc2)CC1 (stereo not drawn) [Erythro-ifenprodil, erythro-2-(4-benzylpiperidino)-1-(4-hydroxyphenyl)-1-propanol] | -2.7%
56 | CC(CN1CCC(Cc2ccccc2)CC1)C(O)c1ccc(O)cc1 (stereo not drawn) [Ro 25.6981, R-(R*,S*)-1-(4-hydroxyphenyl)-2-methyl-3-[4-(phenylmethyl)piperidin-1-yl]-1-propanol, reference compound] | 1%

Same assay, conditions: HEK293; 15 μM, NR1-3/NR2A subunit expressing cells

Row | inhibition at 15 µM | SMILES
57 | 32.1% | COc1cccc(OC)c1CNC(=N)c1cc2ccccc2[nH]1 [Compound 36]
58 | 21.7% | COc1ccc2[nH]c(C(=N)NCc3c(OC)cccc3OC)cc2c1 [Compound 147]

Row | SMILES | inhibition at 15 µM
59 | COc1ccc2[nH]c(C(=N)NCc3cccnc3)cc2c1 [Compound 134] | 6.1%

System: not given
Test: not given
Conditions: cited from earlier work

Row | SMILES | effect on neuropathic pain in clinical trial
60 | C[C@@H]([C@@H](O)c1ccc(O)cc1)N1CCC(O)(c2ccccc2)CC1 [CP 101,606, (1S,2S)-1-(4-hydroxyphenyl)-2-(4-hydroxy-4-phenylpiperidine-1-yl)-1-propanol] | reduced neuropathic pain

Same assay, conditions: no psychotomimetic effects, hallucinations, dysphoria; cited from earlier work

Row | SMILES | tolerability in clinical trial
61 | C[C@@H]([C@@H](O)c1ccc(O)cc1)N1CCC(O)(c2ccccc2)CC1 [CP 101,606, (1S,2S)-1-(4-hydroxyphenyl)-2-(4-hydroxy-4-phenylpiperidine-1-yl)-1-propanol] | well tolerated
